The values that follow come from paper PMC4786259 (PLoS ONE, 2016).

One series has as its target T1, 5-HT7 (Homo sapiens, UniProt P34969).
T1 construct: expressed in transfected cells
The experiment in a line: PDSP receptor functional assay. In kind it is cell-based.

In another series the test system is male NIH Swiss mice. In words: DOI drug discrimination. In kind it is in vivo.
The target of a further series is AmpC β-lactamase (Escherichia coli, UniProt P00811). The experiment in a line: AmpC β-lactamase assay counterscreen for colloidal aggregation. Particulars: <= 10 μM; data not shown. (The purpose of a counterscreen is to sort out artefacts and off-target activity.)
Chain of AmpC β-lactamase (P00811 20-377): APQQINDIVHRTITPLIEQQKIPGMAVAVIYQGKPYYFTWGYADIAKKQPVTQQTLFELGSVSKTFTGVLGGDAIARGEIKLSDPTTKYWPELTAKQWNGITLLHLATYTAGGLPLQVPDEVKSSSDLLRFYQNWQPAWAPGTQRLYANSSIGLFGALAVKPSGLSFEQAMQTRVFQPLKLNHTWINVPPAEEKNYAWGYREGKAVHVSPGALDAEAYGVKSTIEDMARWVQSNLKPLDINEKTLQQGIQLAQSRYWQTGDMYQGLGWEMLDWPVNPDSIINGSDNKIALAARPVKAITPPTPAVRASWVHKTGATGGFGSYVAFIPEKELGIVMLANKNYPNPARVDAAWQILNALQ
For another series, the system named is rats. More on the design: method as in PMID 100809. Particulars: dose range 25–100 mg/kg; cited from earlier work.
Series [1] is described as follows: Dynamic light scattering to test for colloidal aggregation. The class given is physicochemical. The procedure:
Measurements were made at room temperature using a DynaPro MS/X (Wyatt Technology) with a 55 mW laser at 826.6 nm. The laser power was 100%, and the detector angle was 90° with samples run in duplicate.

Series [2] has as its target T2, D4 (Homo sapiens, UniProt P21917).
T2 construct: expressed in transfected cells
T2 sequence (P21917 1-419): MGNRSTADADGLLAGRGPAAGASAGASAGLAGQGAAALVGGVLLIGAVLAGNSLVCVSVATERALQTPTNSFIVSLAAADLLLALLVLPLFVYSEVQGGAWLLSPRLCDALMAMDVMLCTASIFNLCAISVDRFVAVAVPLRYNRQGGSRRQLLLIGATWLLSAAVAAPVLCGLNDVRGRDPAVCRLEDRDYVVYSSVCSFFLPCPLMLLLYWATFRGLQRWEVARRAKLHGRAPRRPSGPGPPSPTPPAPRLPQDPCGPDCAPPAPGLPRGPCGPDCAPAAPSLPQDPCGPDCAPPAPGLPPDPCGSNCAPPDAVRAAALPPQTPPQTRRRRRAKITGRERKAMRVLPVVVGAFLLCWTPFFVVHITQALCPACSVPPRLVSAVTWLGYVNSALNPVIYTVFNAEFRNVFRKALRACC
The experiment in a line: PDSP radioligand competition binding. To be noted: radioligand [^3H]N-methyl Spiperone; read-out: In Vitro Affinity.

The next series addresses T3, 5-HT1A (Homo sapiens, UniProt P08908).
T3 construct: expressed in transfected cells
T3 sequence (P08908 1-422): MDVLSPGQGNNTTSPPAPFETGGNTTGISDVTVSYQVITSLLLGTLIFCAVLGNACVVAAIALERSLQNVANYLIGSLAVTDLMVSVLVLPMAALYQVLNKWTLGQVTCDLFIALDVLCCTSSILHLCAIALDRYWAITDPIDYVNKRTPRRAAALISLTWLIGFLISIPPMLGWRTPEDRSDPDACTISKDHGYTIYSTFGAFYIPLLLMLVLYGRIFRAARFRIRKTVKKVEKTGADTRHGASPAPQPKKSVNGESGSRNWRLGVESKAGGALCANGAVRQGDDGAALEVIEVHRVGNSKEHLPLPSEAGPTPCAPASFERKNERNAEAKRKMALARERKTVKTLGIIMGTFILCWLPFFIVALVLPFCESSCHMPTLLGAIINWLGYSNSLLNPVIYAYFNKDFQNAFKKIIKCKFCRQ
The experiment in a line: PDSP radioligand competition binding. To be noted: radioligand [^3H]WAY100635; read-out: In Vitro Affinity. A general note: In a radioligand displacement assay an active substance lowers the binding of a labelled ligand.

For series [3], the target named is T2, D4. In words: PDSP receptor functional assay. The class given is cell-based.
A further series deals with male C57BL/6J mice. In words: AMPH-induced hyperlocomotor activity (open field). The class given is in vivo. To be noted: 3 mg/kg pre-treatment, 3 mg/kg AMPH; between 35–50 min, vs amphetamine alone. As to the method: Locomotor activity was assessed in AccuScan activity monitors (41X41X30 cm; AccuScan Instruments, Columbus, OH) with photocells spaced at 1.52 cm as described. In these monitors, the photocells create a grid of light beams, and breaks in the light beams (caused by the mouse) are recorded. The Accuscan software then calculates the total distance travelled (amongst other measurements) by analyzing the sequential order of beam breaks in the grid. Horizontal activity was measured as the total distance traveled in centimeters and was recorded in 5-minute bins. PCP-induced hyperlocomotor activity: mice (n = 16) previously acclimated to activity chambers were placed into the chambers for 15 minutes. […] Subsequently, mice were injected with 6.0 mg/kg PCP (i.p.) and returned to the chamber for 90 minutes. Induction of AMPH-induced hyperlocomotor activity followed an identical protocol except locomotor activity was recorded for a total of 75 minutes and 3 mg/kg AMPH was used (i.p.).

In a further series the target is T4, 5-HT2C (Homo sapiens, UniProt P28335).
T4 construct: expressed in transfected cells
T4 sequence (P28335 33-458): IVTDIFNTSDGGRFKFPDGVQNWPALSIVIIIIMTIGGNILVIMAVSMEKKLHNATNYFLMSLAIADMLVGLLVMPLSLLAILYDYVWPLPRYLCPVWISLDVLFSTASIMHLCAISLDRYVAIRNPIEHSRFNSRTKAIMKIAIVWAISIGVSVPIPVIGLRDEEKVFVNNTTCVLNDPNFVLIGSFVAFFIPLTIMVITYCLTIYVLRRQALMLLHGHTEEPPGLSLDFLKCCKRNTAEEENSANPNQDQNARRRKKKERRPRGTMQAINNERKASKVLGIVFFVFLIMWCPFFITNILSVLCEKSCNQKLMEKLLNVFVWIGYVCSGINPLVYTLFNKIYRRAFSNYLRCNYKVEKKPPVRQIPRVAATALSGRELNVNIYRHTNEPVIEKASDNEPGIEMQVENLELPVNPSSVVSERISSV
In words: PDSP radioligand competition binding. Particulars: radioligand [^3H]Mesulergine; read-out: In Vitro Affinity.

Another series has as its target DOR (Homo sapiens, UniProt P41143). In words: PDSP radioligand competition binding. To be noted: radioligand [^3H]DADLE; read-out: In vitro Affinity.
The target of a further series is D5 (Homo sapiens, UniProt P21918). The experiment in a line: PDSP radioligand competition binding. To be noted: radioligand [^3H]SCH23390.
Chain of D5 (P21918 whole entry, looked up): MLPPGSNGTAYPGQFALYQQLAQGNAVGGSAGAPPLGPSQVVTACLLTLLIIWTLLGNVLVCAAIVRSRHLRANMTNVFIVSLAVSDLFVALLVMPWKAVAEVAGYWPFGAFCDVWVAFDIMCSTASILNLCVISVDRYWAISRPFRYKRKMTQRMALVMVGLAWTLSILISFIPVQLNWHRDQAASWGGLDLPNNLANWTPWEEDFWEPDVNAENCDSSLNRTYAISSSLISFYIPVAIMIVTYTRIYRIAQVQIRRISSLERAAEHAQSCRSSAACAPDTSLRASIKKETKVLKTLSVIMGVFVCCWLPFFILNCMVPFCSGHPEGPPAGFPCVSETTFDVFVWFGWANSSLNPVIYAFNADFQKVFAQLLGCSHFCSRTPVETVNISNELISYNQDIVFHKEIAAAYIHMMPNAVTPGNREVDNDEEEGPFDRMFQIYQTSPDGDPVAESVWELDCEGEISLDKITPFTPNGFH
The target in a further series is α2B (Homo sapiens, UniProt P18089). In words: PDSP radioligand competition binding. Particulars: radioligand [^3H]Rauwolscine; read-out: In vitro Affinity.
Chain of α2B (P18089 whole entry): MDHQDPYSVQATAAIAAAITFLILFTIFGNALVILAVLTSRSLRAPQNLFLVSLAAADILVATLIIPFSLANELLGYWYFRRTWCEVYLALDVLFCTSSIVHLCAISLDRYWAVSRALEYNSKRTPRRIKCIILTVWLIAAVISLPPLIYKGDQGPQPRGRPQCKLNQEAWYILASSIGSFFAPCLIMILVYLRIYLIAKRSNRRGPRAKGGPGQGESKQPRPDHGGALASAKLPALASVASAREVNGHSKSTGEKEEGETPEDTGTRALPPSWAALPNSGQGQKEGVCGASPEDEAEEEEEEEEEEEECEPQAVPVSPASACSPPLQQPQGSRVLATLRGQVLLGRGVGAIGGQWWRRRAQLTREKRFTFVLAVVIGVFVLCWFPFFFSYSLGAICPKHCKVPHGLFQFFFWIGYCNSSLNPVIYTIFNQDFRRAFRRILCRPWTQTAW
The next series has as its target α2A (Homo sapiens, UniProt P08913). The experiment in a line: PDSP radioligand competition binding. Particulars: radioligand [^3H]Rauwolscine; read-out: In vitro Affinity.
Another series addresses T5, 5-HT2B (Homo sapiens, UniProt P41595).
T5 construct: expressed in transfected cells
The experiment in a line: PDSP receptor functional assay. The class given is cell-based.

Another series has as its target hDAT (Homo sapiens, UniProt Q01959). In words: Whole cell 3H-dopamine uptake in HEK-DAT cells.

Structures are written as SMILES.

T5 sequence (P41595 whole entry, species assumed): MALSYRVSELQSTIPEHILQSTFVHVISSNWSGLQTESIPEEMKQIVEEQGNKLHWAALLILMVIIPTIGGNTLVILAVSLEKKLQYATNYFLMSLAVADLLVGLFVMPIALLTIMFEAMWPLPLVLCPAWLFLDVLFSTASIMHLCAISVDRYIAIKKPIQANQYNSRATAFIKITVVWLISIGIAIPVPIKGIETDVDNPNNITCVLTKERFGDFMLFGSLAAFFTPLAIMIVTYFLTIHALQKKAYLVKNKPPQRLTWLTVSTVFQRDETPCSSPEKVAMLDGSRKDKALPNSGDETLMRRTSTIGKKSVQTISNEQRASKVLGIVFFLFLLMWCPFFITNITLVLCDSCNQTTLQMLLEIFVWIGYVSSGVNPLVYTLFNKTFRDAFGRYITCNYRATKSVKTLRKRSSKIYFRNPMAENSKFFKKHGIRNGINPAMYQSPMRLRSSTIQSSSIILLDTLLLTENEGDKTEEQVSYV
T1 sequence (P34969 whole entry, species assumed): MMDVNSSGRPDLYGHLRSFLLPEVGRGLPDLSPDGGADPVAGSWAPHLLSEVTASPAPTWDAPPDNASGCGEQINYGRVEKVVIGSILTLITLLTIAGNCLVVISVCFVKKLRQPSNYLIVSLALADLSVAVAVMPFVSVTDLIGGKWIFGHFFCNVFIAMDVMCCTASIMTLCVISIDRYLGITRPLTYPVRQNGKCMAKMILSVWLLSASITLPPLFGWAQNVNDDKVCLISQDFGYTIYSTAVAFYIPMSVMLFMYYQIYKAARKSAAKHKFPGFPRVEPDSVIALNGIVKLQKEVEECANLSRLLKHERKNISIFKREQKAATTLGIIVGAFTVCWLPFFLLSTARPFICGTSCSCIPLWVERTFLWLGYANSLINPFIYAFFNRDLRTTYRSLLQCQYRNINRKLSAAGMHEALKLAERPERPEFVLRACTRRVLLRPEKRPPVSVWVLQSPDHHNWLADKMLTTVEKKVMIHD
Chain of DOR (P41143 whole entry): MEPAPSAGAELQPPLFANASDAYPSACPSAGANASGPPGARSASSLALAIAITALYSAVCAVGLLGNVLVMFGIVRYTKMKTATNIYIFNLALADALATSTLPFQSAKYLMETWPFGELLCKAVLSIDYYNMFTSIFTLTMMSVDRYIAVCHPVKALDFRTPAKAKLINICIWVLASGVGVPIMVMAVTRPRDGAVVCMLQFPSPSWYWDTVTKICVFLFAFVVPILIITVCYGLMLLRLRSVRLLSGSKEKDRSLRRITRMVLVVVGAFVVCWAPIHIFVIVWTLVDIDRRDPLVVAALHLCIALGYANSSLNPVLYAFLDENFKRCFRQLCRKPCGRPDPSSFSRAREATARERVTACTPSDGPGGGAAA
Chain of hDAT (Q01959 whole entry): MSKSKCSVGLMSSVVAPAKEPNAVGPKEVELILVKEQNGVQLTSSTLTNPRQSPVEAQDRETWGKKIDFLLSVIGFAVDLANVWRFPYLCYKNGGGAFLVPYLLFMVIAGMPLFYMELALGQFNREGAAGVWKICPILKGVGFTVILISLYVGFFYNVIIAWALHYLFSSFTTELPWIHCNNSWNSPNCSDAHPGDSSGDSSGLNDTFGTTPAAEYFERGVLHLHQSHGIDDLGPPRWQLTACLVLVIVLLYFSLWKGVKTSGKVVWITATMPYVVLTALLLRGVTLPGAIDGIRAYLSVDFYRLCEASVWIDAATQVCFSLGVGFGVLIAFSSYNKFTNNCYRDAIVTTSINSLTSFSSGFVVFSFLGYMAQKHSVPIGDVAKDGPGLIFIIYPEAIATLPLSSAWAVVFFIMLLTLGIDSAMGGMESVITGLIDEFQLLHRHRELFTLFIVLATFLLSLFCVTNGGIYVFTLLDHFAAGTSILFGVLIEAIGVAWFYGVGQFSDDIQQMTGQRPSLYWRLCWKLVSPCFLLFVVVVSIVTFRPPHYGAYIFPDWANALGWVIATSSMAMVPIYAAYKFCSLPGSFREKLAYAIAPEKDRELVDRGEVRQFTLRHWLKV
Chain of α2A (P08913 whole entry): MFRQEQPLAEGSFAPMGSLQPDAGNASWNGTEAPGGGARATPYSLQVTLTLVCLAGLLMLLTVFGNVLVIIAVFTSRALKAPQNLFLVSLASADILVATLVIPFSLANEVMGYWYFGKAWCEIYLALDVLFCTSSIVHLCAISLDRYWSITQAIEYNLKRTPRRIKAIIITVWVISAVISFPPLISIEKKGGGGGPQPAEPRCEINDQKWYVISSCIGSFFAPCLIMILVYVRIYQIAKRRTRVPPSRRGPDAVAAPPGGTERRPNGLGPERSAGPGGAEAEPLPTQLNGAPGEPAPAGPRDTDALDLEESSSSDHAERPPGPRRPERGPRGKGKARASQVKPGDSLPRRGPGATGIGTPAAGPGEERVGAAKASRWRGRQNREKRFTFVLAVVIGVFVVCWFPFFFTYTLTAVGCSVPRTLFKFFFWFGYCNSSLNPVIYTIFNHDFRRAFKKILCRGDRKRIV
Experimental for hDAT: Cell culture: HEK293 cells (ATCC) lines stably expressing hDAT or hDAT and hVMAT2 constructs were cultured at 37°C and 5% CO2 in DMEM with 10% FBS.
Whole cell ^3H-dopamine (DA) uptake: Cells were plated into 48-well plates one day before uptake was performed. […] After incubation, 25 μl uptake buffer containing ^3H-DA and DA was added for a final concentration of 20 nM ^3H-DA and 1 μM DA. Cells were incubated at 37°C for 20 minutes or for the time indicated. Nonspecific uptake was determined in the presence of 10 μM nomifensine. Uptake was terminated by aspirating uptake buffer and washing each well twice with 0.5 ml ice-cold uptake buffer. Cells were lysed in 0.1 N NaOH and transferred to vials containing 3 ml scintillation cocktail. Radioactivity was quantitated using a Beckman LS6500 counter. Data were analyzed in Graph Pad Prism 5.0.

With `COc1cc2c3c(c1OC)-c1ccccc1C[C@H]3N(C)CC2` [nuciferine], the EC50 (commonly the concentration giving half of the maximal effect) on 5-HT7 was determined as 0.15 µM; at D4 [3] (agonist), 2 µM; on 5-HT2B (antagonist), 1 µM; at hDAT, 0.0018 µM. Moreover, the results for the “Function Type” value at 5-HT7, at D4 [3] and on 5-HT2B were “Inverse agonist”, “agonist” and “Antagonist”, respectively. Moreover, the half-maximal inhibitory concentration (IC50) (in general, the concentration needed to halve the response being measured) on 5-HT7 is 0.15 µM; at 5-HT2B (5-HT2B antagonist), 1 µM. The “substitution of cumulative DOI doses for the DOI training dose” value in the series with male NIH Swiss mice (in the presence of 1.0 mg/kg nuciferine) is on record as “partial substitution”; with male NIH Swiss mice (in the presence of 3.0 mg/kg nuciferine), “no cumulative dose of DOI substituted for the training dose”. Moreover, at AmpC β-lactamase, the “inhibition of AmpC β-lactamase” value was “did not inhibit”. Moreover, the “hyperlocomotor effect of amphetamine” value in the series with rats was “inhibits the hyperlocomotor effect of amphetamine”. In addition, in [1] (<= 10 μM, aqueous buffer), the “light scattering above background” value is given as “did not scatter light above background”. For the same molecule, the colloidal aggregate formation result in [1] (concentrations up to 10 μM) was “does not form aggregates”. The Ki at D4 [2] is 1.39 µM; on 5-HT1A it was 0.077 µM; at 5-HT2C, 0.0605 µM; at DOR, 10 µM; on α2B it was 0.687 µM; at α2A it was 1.15 µM. Besides, the amphetamine induced hyperlocomotion result with male C57BL/6J mice is recorded as “significantly higher motor activity”. For the same molecule, the “In Vitro Affinity” value on D5 is “(neg) [^3H]SCH23390”.
